# Earlier results in PubChem BioAssay AID1259409 (Chemical Carcinogenesis Research Information System (CCRIS), 2018).
# Tested on: rodent chemically induced tumor inhibition, incidence and multiplicity
# Assay: CCRIS tumor inhibitor studies
# Conditions: Promoter: NONE USED
compound,measurement,setting,value
NC(=S)S,"tumour outcome (control, treated, inhibition, significance)","Carcinogen: ETHYL CARBAMATE, 51-79-6, Dose [Inhibitor]: 0, 0.25 MG/G IN 0.005 ML OF 0.9% SALINE ADMINISTERED 30 MIN PRIOR TO CARCINOGEN DOSE (STUDY DURATION: 26 WK), Route [Inhibitor]: INTRAPERITONEAL, Species: MOUSE, Strain/Sex: STRAIN-A/FEMALE, Target Tissue: Type of Lesion: LUNG: ADENOMA, Dose [Carcinogen]: 0.5 MG/G ONCE","100%, 100%, 0%, not calculated"
same,"tumour outcome (control, treated, inhibition, significance)","Carcinogen: ETHYL CARBAMATE, 51-79-6, Dose [Inhibitor]: 0, 0.25 MG/G IN 0.005 ML OF 0.9% SALINE FIRST DOSE ADMINISTERED 30 MIN PRIOR TO CARCINOGEN DOSE FOLLOWED BY A SECOND DOS, Route [Inhibitor]: INTRAPERITONEAL, Species: MOUSE, Strain/Sex: STRAIN-A/FEMALE, Target Tissue: Type of Lesion: LUNG: ADENOMA, Dose [Carcinogen]: 0.25 MG/G ONCE","100%, 100%, 0%, not calculated"
same,"tumour outcome (control, treated, inhibition, significance)","Carcinogen: ETHYL CARBAMATE, 51-79-6, Dose [Inhibitor]: 0, 0.25 MG/G IN 0.005 ML OF 0.9% SALINE FIRST DOSE ADMINISTERED 30 MIN PRIOR TO CARCINOGEN DOSE FOLLOWED BY A SECOND DOS, Route [Inhibitor]: INTRAPERITONEAL, Species: MOUSE, Strain/Sex: STRAIN-A/FEMALE, Target Tissue: Type of Lesion: LUNG: ADENOMA, Dose [Carcinogen]: 0.5 MG/G ONCE","100%, 100%, 0%, not calculated"
same,"tumour outcome (control, treated, inhibition, significance)","Carcinogen: ETHYL CARBAMATE, 51-79-6, Dose [Inhibitor]: 0, 0.5 MG/G IN 0.01 ML OF 0.9% SALINE ADMINISTERED 30 MIN PRIOR TO CARCINOGEN DOSE (STUDY DURATION: 7 MO), Route [Inhibitor]: INTRAPERITONEAL, Species: MOUSE, Strain/Sex: B6C3F1/MALE, Target Tissue: Type of Lesion: LIVER: HEPATOMA, Dose [Carcinogen]: 0.5 MG/G ONCE","26/26 (100%), 31/31 (100%), 0%, not calculated"
same,"tumour outcome (control, treated, inhibition, significance)","Carcinogen: ETHYL CARBAMATE, 51-79-6, Dose [Inhibitor]: 0, 0.5 MG/G IN 0.01 ML OF 0.9% SALINE ADMINISTERED 30 MIN PRIOR TO CARCINOGEN DOSE (STUDY DURATION: 8 MO), Route [Inhibitor]: INTRAPERITONEAL, Species: MOUSE, Strain/Sex: B6C3F1/MALE, Target Tissue: Type of Lesion: LIVER: HEPATOMA, Dose [Carcinogen]: 0.125 MG/G ONCE","24/24 (100%), 24/25 (96%), 4%, not calculated"
same,"tumour outcome (control, treated, inhibition, significance)","Carcinogen: ETHYL CARBAMATE, 51-79-6, Dose [Inhibitor]: 0, 0.5 MG/G IN 0.01 ML OF 0.9% SALINE ADMINISTERED 30 MIN PRIOR TO CARCINOGEN DOSE (STUDY DURATION: 8 MO), Route [Inhibitor]: INTRAPERITONEAL, Species: MOUSE, Strain/Sex: B6C3F1/MALE, Target Tissue: Type of Lesion: LIVER: HEPATOMA, Dose [Carcinogen]: 0.25 MG/G ONCE","17/17 (100%), 28/29 (97%), 3%, not calculated"
same,"tumour outcome (control, treated, inhibition, significance)","Carcinogen: ETHYL CARBAMATE, 51-79-6, Dose [Inhibitor]: 0, 0.5 MG/G IN 0.01 ML OF 0.9% SALINE ADMINISTERED 30 MIN PRIOR TO CARCINOGEN DOSE (STUDY DURATION: 12 MO), Route [Inhibitor]: INTRAPERITONEAL, Species: MOUSE, Strain/Sex: B6C3F1/FEMALE, Target Tissue: Type of Lesion: HARDERIAN GLAND: TUMOR, Dose [Carcinogen]: 0.5 MG/G ONCE","40%, 15%, 62%, not calculated"
same,"tumour outcome (control, treated, inhibition, significance)","Carcinogen: ETHYL CARBAMATE, 51-79-6, Dose [Inhibitor]: 0, 0.5 MG/G IN 0.01 ML OF 0.9% SALINE ADMINISTERED 30 MIN PRIOR TO CARCINOGEN DOSE (STUDY DURATION: 12 MO), Route [Inhibitor]: INTRAPERITONEAL, Species: MOUSE, Strain/Sex: B6C3F1/FEMALE, Target Tissue: Type of Lesion: LIVER: HEPATOMA, Dose [Carcinogen]: 0.5 MG/G ONCE","68%, 19%, 72%, not calculated"
same,"tumour outcome (control, treated, inhibition, significance)","Carcinogen: ETHYL CARBAMATE, 51-79-6, Dose [Inhibitor]: 0, 0.5 MG/G IN 0.01 ML OF 0.9% SALINE ADMINISTERED 30 MIN PRIOR TO CARCINOGEN DOSE (STUDY DURATION: 12 MO), Route [Inhibitor]: INTRAPERITONEAL, Species: MOUSE, Strain/Sex: B6C3F1/FEMALE, Target Tissue: Type of Lesion: LUNG: ADENOMA, Dose [Carcinogen]: 0.5 MG/G ONCE","48%, 12%, 75%, not calculated"
same,"tumour outcome (control, treated, inhibition, significance)","Carcinogen: VINYL CARBAMATE, 15805-73-9, Dose [Inhibitor]: 0, 0.25 MG/G IN 0.005 ML OF 0.9% SALINE ADMINISTERED 30 MIN PRIOR TO CARCINOGEN DOSE (STUDY DURATION: 26 WK), Route [Inhibitor]: INTRAPERITONEAL, Species: MOUSE, Strain/Sex: STRAIN-A/FEMALE, Target Tissue: Type of Lesion: LUNG: ADENOMA, Dose [Carcinogen]: 0.025 MG/G ONCE","100%, 100%, 0%, not calculated"
same,"tumour outcome (control, treated, inhibition, significance)","Carcinogen: VINYL CARBAMATE, 15805-73-9, Dose [Inhibitor]: 0, 0.5 MG/G IN 0.005 ML OF 0.9% SALINE ADMINISTERED 30 MIN PRIOR TO CARCINOGEN DOSE (STUDY DURATION: 26 WK), Route [Inhibitor]: INTRAPERITONEAL, Species: MOUSE, Strain/Sex: STRAIN-A/FEMALE, Target Tissue: Type of Lesion: LUNG: ADENOMA, Dose [Carcinogen]: 0.025 MG/G ONCE","100%, 100%, 0%, not calculated"
same,"tumour outcome (control, treated, inhibition, significance)","Carcinogen: VINYL CARBAMATE, 15805-73-9, Dose [Inhibitor]: 0, 0.5 MG/G IN 0.01 ML OF 0.9% SALINE ADMINISTERED 30 MIN PRIOR TO CARCINOGEN DOSE (STUDY DURATION: 7 MO), Route [Inhibitor]: INTRAPERITONEAL, Species: MOUSE, Strain/Sex: B6C3F1/MALE, Target Tissue: Type of Lesion: LIVER: HEPATOMA, Dose [Carcinogen]: 0.025 MG/G ONCE","24/24 (100%), 29/29 (100%), 0%, not calculated"
same,"tumour outcome (control, treated, inhibition, significance)","Carcinogen: VINYL CARBAMATE, 15805-73-9, Dose [Inhibitor]: 0, 0.5 MG/G IN 0.01 ML OF 0.9% SALINE ADMINISTERED 30 MIN PRIOR TO CARCINOGEN DOSE (STUDY DURATION: 8 MO), Route [Inhibitor]: INTRAPERITONEAL, Species: MOUSE, Strain/Sex: B6C3F1/MALE, Target Tissue: Type of Lesion: LIVER: HEPATOMA, Dose [Carcinogen]: 0.003 MG/G ONCE","29/29 (100%), 27/27 (100%), 0%, not calculated"
same,"tumour outcome (control, treated, inhibition, significance)","Carcinogen: VINYL CARBAMATE, 15805-73-9, Dose [Inhibitor]: 0, 0.5 MG/G IN 0.01 ML OF 0.9% SALINE ADMINISTERED 30 MIN PRIOR TO CARCINOGEN DOSE (STUDY DURATION: 8 MO), Route [Inhibitor]: INTRAPERITONEAL, Species: MOUSE, Strain/Sex: B6C3F1/MALE, Target Tissue: Type of Lesion: LIVER: HEPATOMA, Dose [Carcinogen]: 0.008 MG/G ONCE","23/23 (100%), 27/27 (100%), 0%, not calculated"
same,"tumour outcome (control, treated, inhibition, significance)","Carcinogen: VINYL CARBAMATE, 15805-73-9, Dose [Inhibitor]: 0, 0.5 MG/G IN 0.01 ML OF 0.9% SALINE ADMINISTERED 30 MIN PRIOR TO CARCINOGEN DOSE (STUDY DURATION: 12 MO), Route [Inhibitor]: INTRAPERITONEAL, Species: MOUSE, Strain/Sex: B6C3F1/FEMALE, Target Tissue: Type of Lesion: HARDERIAN GLAND: TUMOR, Dose [Carcinogen]: 0.025 MG/G ONCE","68%, 22%, 68%, not calculated"
same,"tumour outcome (control, treated, inhibition, significance)","Carcinogen: VINYL CARBAMATE, 15805-73-9, Dose [Inhibitor]: 0, 0.5 MG/G IN 0.01 ML OF 0.9% SALINE ADMINISTERED 30 MIN PRIOR TO CARCINOGEN DOSE (STUDY DURATION: 12 MO), Route [Inhibitor]: INTRAPERITONEAL, Species: MOUSE, Strain/Sex: B6C3F1/FEMALE, Target Tissue: Type of Lesion: LIVER: HEPATOMA, Dose [Carcinogen]: 0.025 MG/G ONCE","96%, 30%, 69%, not calculated"
same,"tumour outcome (control, treated, inhibition, significance)","Carcinogen: VINYL CARBAMATE, 15805-73-9, Dose [Inhibitor]: 0, 0.5 MG/G IN 0.01 ML OF 0.9% SALINE ADMINISTERED 30 MIN PRIOR TO CARCINOGEN DOSE (STUDY DURATION: 12 MO), Route [Inhibitor]: INTRAPERITONEAL, Species: MOUSE, Strain/Sex: B6C3F1/FEMALE, Target Tissue: Type of Lesion: LUNG: ADENOMA, Dose [Carcinogen]: 0.025 MG/G ONCE","54%, 9%, 83%, not calculated"
CC1=C(/C=C/C(C)=C/C=C/C(C)=C\C(=O)NCCO)C(C)(C)CCC1,"tumour outcome (control, treated, inhibition, significance)","Carcinogen: N-BUTYL-N-(4-HYDROXYBUTYL)NITROSAMINE, 3817-11-6, Dose [Inhibitor]: 1.5 MMOL/KG DIET DAILY FOR 159 D STARTING 1 WK AFTER THE FINAL CARCINOGEN DOSE (STUDY DURATION: 216 D), Route [Inhibitor]: ORAL, Species: MOUSE, Strain/Sex: DBF1/MALE, Target Tissue: Type of Lesion: URINARY BLADDER: TRANSITIONAL CELL CARCINOMA, Dose [Carcinogen]: 7.5 MG 1/WK FOR 8 WK","29/98 (30%), 16/97 (17%), 43%, p<0.05"
same,"tumour outcome (control, treated, inhibition, significance)","Carcinogen: N-BUTYL-N-(4-HYDROXYBUTYL)NITROSAMINE, 3817-11-6, Dose [Inhibitor]: 1.5 MMOL/KG IN DIET FOR 159 D STARTING 1 WK AFTER LAST CARCINOGEN DOSE (STUDY DURATION: 216 D), Route [Inhibitor]: ORAL, Species: MOUSE, Strain/Sex: BDF/MALE, Target Tissue: Type of Lesion: URINARY BLADDER: TRANSITIONAL CELL CARCINOMA, Dose [Carcinogen]: 7.5 MG 1/WK FOR 8 WK","29/98 (30%), 16/97 (17%), 43%, p<0.05"
CCCCC(CC)COC(=O)c1ccccc1C(=O)OCC(CC)CCCC (stereo not given),"tumour outcome (control, treated, inhibition, significance)","Carcinogen: N-NITROSOBIS(2-HYDROXYPROPYL)AMINE, 53609-64-6, Dose [Inhibitor]: 0, 1.2% IN DIET FOR 30 WK BEGINNING POST CARCINOGEN TREATMENT (STUDY DURATION: 35 WK), Route [Inhibitor]: ORAL, Species: HAMSTER, Strain/Sex: SYRIAN/MALE, Target Tissue: Type of Lesion: PANCREAS: ADENOCARCINOMA, Dose [Carcinogen]: 500 MG/KG 1/WK FOR 5 WK","8/17 (47%), 7/19 (37%), 21%, not significant"
